What was measured:
[1] = tested on: angiogenesis under skin of mice; assay: Angiogenesis under skin of mice (b-FGF matrigel, amount of hemoglobin); type: in vivo, BALB/c male mice; set-up: key to Amount of hemoglobin, value in parentheses (Control = 100): % of control (control = 100), hemoglobin per matrigel
Protocol: By subcutaneously injecting a mixture having recombinant human fibroblast growth factor-basic added to matrigel, to the back of a mice, angiogenesis occurs under skin of the mice. By measuring the amount of hemoglobin in matrigel, angiogenesis can be quantified. Influences of the compounds of the present invention to angiogenesis were observed.
Matrigel (trademark; basement membrane matrix, phenol is not included, purchased from Becton Dickinson Labware) was added to Dulbecco's modified Eagle's medium (purchased from Sigma), so that the concentration was 9 mg/ml. Recombinant Human Fibroblast Growth Factor-basic (b-FGF, produced by Intergen) was added thereto, so that the concentration was 2 μg/700 μl. The mixture was subcutaneously injected to 6-week BALB/c male mice (Charles River Japan Inc.) in an amount of 700 μl per mouse. Everyday after matrigel injection, a suspension having the compound of the present invention added to 0.8% Tween 80 (purchased from Nacalai Tesque), so that the predetermined concentration could be obtained, was intraperitoneally injected to the mice. 8 days after matrigel injection, matrigel was taken out from the mice, which was then placed in 200 μl of 1% NH4OH at room temperature for 4 hours, to extract hemoglobin. The extraction and matrigel together were subjected to centrifugal separation (10000 rpm, 5 min). 100 μl of the obtained supernatant and 500 μl of Drabkin's reagent (purchased from Sigma) were mixed and left at room temperature. After left more than 15 minutes, absorbance of the supernatant at a wavelength of 540 nm was measured by using a spectrophotometer SPECTRA max 250 (produced by Molecular Devices). The amount of hemoglobin in the supernatant was obtained from the standard curve prepared by using hemoglobin standard (purchased from Sigma), and the amount of hemoglobin per matrigel obtained from a mouse was calculated.
The amount of the hemoglobin in each treatment fraction was corrected by the amount of hemoglobin wherein matrigel having no b-FGF added was injected to the mice, and 0.8% Tween 80 as a solvent alone was injected everyday.
Influences of the compounds of the present invention to angiogenesis under skin of mice were observed, in the same manner as in Test Example 8.

[2] = tested on: TNF-α production or secretion by human leukemia cells HL-60 (Okadaic acid stimulation); assay: Influence on TNF-α production or secretion by HL-60 cells stimulated by Okadaic acid (ELISA of supernatant); type: cell-based; details: for amount of TNF-α in the supernatant, Okadaic acid alone = 100%: HL-60, Okadaic acid 50 nM, 16 hours (Table 8)
Protocol: (§1) Human leukemia cells HL-60 produce tumor necrosis factor (TNF-α) by stimulation of Okadaic acid (9,10-Deepithio-9,10-didehydroacanthifolicin) or 12O-tetradecanoyl phorbol-13-acetate (TPA). Influences of the compounds of the present invention to production or secretion of TNF-α by them were observed.
Human leukemia cells (HL-60) were cultured by using a RPMI 1640 culture medium (including 5% fetal bovine serum), in a carbonic acid gas incubator (5% CO2, humidified, 37° C.). Then, the cells were pre-cultured in a RPMI 1640 culture medium (including 10% fetal bovine serum). Okadaic acid was added thereto, so that the final concentration was 50 nM based on the HL-60 cells (5×10^5 cells/ml) in an exponentially growing stage. Then, the compound of the present invention was added thereto so that the predetermined concentration could be obtained, to prepare a cell suspension, which was then cultured in a carbonic acid gas incubator (5% CO2, humidified, 37° C.). In this culture, a multiplate having 24 holes (produced by Corning) was used, and the cell suspension was injected in an amount of 0.5 ml per hole, to culture the cells.
16 hours after the culture started, the cells were removed by centrifugation (1000-2000 rpm×10 min), and the amount of TNF-α in the supernatant was measured in accordance with the method of Amersham, by using human TNF-α ELISA system (produced by Amersham).
The values in the Table are values obtained by supposing the amount of TNF-αin the supernatant of the culture medium when treated only with Okadaic acid having a final concentration of 50 nM, 100%.
Influences of the compounds of the present invention to production or secretion of TNF-α by Okadaic acid stimulation were observed, in the same manner as in Test Example 1.

[3] = tested on: TNF-α production or secretion by human leukemia cells HL-60 (TPA stimulation); assay: Influence on TNF-α production or secretion by HL-60 cells stimulated by TPA (ELISA of supernatant); type: cell-based; details: for amount of TNF-α in the supernatant, TPA alone = 100% / Amount of TNF (%), TPA alone = 100%: HL-60, TPA 10 nM; for amount of TNF-α in the supernatant, TPA alone = 100%: 16 hours (Table 9); for amount of TNF-α, TPA alone = 100%: HL-60, TPA stimulation (Table 11); for Amount of TNF (%), TPA alone = 100%: 16 hours (Test Example 3)
Protocol: as §1
The same operation was carried out as in Test Example 1, except that TPA (produced by Sigma) having a final concentration of 10 nM was used, instead of Okadaic acid having a final concentration of 50 nM.
The values in the Table are values obtained by supposing the amount of TNF-α in the supernatant of the culture medium when treated only with TPA having a final concentration of 10 nM, 100%.
Human leukemia cells (HL-60) produce tumor necrosis factor (TNF-α) by stimulation of 12O-tetradecanoyl phorbol-13-acetate (TPA). The influences of the compounds of the present invention to production of TNF-αby it were observed.
Human leukemia cells (HL-60) were cultured by using a RPMI 1640 culture medium (including 5% fetal bovine serum), in a carbonic acid gas incubator (5% CO2, humidified, 37° C.). Then, the cells were pre-cultured in a RPMI 1640 culture medium (including 10% fetal bovine serum). TPA was added thereto, so that the final concentration was 10 nM based on the HL-60 cells (5×10^5 cells/ml) in an exponentially growing stage. Then, the compound of the present invention was added thereto so that the predetermined concentration could be obtained, to prepare a cell suspension, which was then cultured in a carbonic gas incubator (5% CO2, humidified, 37° C.). In this culture, a multiplate having 24 holes (produced by Corning) was used, and the cell suspension was injected in an amount of 0.5 ml per hole, to culture the cells.
16 hours after the culture started, the cells were removed by centrifugation(1000-2000 rpm×10 min), and the amount of TNF-α in the supernatant was measured in accordance with the method of Amersham, by using human TNF-α ELISA system (produced by Amersham).
The values are obtained by supposing the amount of TNF-α when treated only with TPA having a final concentration of 10 nM, 100%.
The influences of the compounds of the present invention to production or secretion of TNF-α by TPA stimulation were observed, in the same manner as in Test Example 2.

[4] = compound 1 μM, HL-60, Okadaic acid stimulation (Table 14)
[5] = compound 3 μM, HL-60, Okadaic acid stimulation (Table 14)
[6] = compound 10 μM, HL-60, Okadaic acid stimulation (Table 14)
[7] = compound 30 μM, HL-60, Okadaic acid stimulation (Table 14)
[8] = compound 100 μM, HL-60, Okadaic acid stimulation (Table 14)

C[C@H](C1CCCCC1)N1C(=O)c2c(F)c(F)c(F)c(F)c2C1=O [Compound 69, (R)-2-(1-cyclohexylethyl)-4,5,6,7-tetrafluoro-1H-isoindole-1,3-dione]
Amount of hemoglobin, value in parentheses (Control = 100) ([1]; 1 mg/kg, experiment (b) (Table 15)): 93
Amount of hemoglobin ([1]; 1 mg/kg, experiment (b), Control 83.3 (Table 15)): 77.2 μg/gel
Amount of hemoglobin, value in parentheses (Control = 100) ([1]; 5 mg/kg, experiment (b) (Table 15)): 49
Amount of hemoglobin ([1]; 5 mg/kg, experiment (b), Control 83.3 (Table 15)): 41.1 μg/gel
amount of TNF-α in the supernatant, Okadaic acid alone = 100% ([2]; compound 1 nM): 101%
amount of TNF-α in the supernatant, Okadaic acid alone = 100% ([2]; compound 10 nM): 95%
amount of TNF-α in the supernatant, Okadaic acid alone = 100% ([2]; compound 100 nM): 59%
amount of TNF-α in the supernatant, Okadaic acid alone = 100% ([2]; compound 0.3 μM): 10%
amount of TNF-α in the supernatant, TPA alone = 100% ([3]; compound 10 nM): 100%
amount of TNF-α in the supernatant, TPA alone = 100% ([3]; compound 100 nM): 102%
amount of TNF-α in the supernatant, TPA alone = 100% ([3]; compound 0.3 μM): 98%

C[C@@H](c1cccc2ccccc12)N1C(=O)c2c(F)c(F)c(F)c(F)c2C1=O [Compound 49, (S)-2-(1-naphthylethyl)-4,5,6,7-tetrafluoro-1H-isoindole-1,3-dione]
amount of TNF-α in the supernatant, Okadaic acid alone = 100% ([2]; compound 1 nM): 100%
amount of TNF-α in the supernatant, Okadaic acid alone = 100% ([2]; compound 10 nM): 102%
amount of TNF-α in the supernatant, Okadaic acid alone = 100% ([2]; compound 100 nM): 100%
amount of TNF-α in the supernatant, Okadaic acid alone = 100% ([2]; compound 0.3 μM): 101%
amount of TNF-α in the supernatant, TPA alone = 100% ([3]; compound 10 nM): 100%
amount of TNF-α in the supernatant, TPA alone = 100% ([3]; compound 100 nM): 99%
amount of TNF-α in the supernatant, TPA alone = 100% ([3]; compound 0.3 μM): 101%

CC(C)c1cccc(C(C)C)c1N1C(=O)c2ccccc2C1=S [Compound 174, N-(2,6-diisopropylphenyl)thiophthalimide]
Amount of hemoglobin, value in parentheses (dose 0 = 100) ([1]; 100 mg/kg intraperitoneally everyday, 8 days after matrigel injection (Table 12)): 54
Amount of hemoglobin ([1]; 100 mg/kg intraperitoneally everyday, 8 days after matrigel injection, dose 0 = 307.3 (Table 12)): 164.8 μg/gel
amount of TNF-α, Okadaic acid alone = 100% ([2]; compound 1 μM, HL-60, Okadaic acid stimulation (Table 10)): 96%
amount of TNF-α, Okadaic acid alone = 100% ([2]; compound 10 μM, HL-60, Okadaic acid stimulation (Table 10)): 15%
amount of TNF-α, Okadaic acid alone = 100% ([2]; compound 100 μM, HL-60, Okadaic acid stimulation (Table 10)): 0%
amount of TNF-α, TPA alone = 100% ([3]; compound 1 μM): 332%
amount of TNF-α, TPA alone = 100% ([3]; compound 10 μM): 682%
amount of TNF-α, TPA alone = 100% ([3]; compound 100 μM): 1326%

CC(C)c1cccc(C(C)C)c1N1C(=O)c2c(F)c(F)c(F)c(F)c2C1=O [Compound 203, N-(2,6-diisopropylphenyl)-4,5,6,7-tetra-fluoro-phthalimide]
Amount of hemoglobin, value in parentheses (Control = 100) ([1]; 1 mg/kg, experiment (a) (Table 15)): 69
Amount of hemoglobin ([1]; 1 mg/kg, experiment (a), Control 307.3 (Table 15)): 211.4 μg/gel
amount of TNF-α, Okadaic acid alone = 100% ([2]; compound 1 nM, HL-60, Okadaic acid stimulation (Table 14)): 100%
amount of TNF-α, Okadaic acid alone = 100% ([2]; compound 3 nM, HL-60, Okadaic acid stimulation (Table 14)): 93%
amount of TNF-α, Okadaic acid alone = 100% ([2]; compound 10 nM, HL-60, Okadaic acid stimulation (Table 14)): 75%
amount of TNF-α, Okadaic acid alone = 100% ([2]; compound 30 nM, HL-60, Okadaic acid stimulation (Table 14)): 42%
amount of TNF-α, Okadaic acid alone = 100% ([2]; compound 100 nM, HL-60, Okadaic acid stimulation (Table 14)): 0%

CC(C)c1cccc(C(C)C)c1N1C(=O)Cc2ccccc2C1=O [Compound A-3, N-(2.6-diisopropylphenyl)-homophthalimide]
Amount of TNF (%), TPA alone = 100% ([3]; compound 10 μM): 258%

C[C@@H](C1CCCCC1)N1C(=O)c2c(F)c(F)c(F)c(F)c2C1=O [Compound 68, (S)-2-(1-cyclohexylethyl)-4,5,6,7-tetrafluoro-1H-isoindole-1,3-dione]
amount of TNF-α in the supernatant, Okadaic acid alone = 100% ([2]; compound 1 nM): 102%
amount of TNF-α in the supernatant, Okadaic acid alone = 100% ([2]; compound 10 nM): 101%
amount of TNF-α in the supernatant, Okadaic acid alone = 100% ([2]; compound 100 nM): 96%
amount of TNF-α in the supernatant, Okadaic acid alone = 100% ([2]; compound 0.3 μM): 65%
amount of TNF-α in the supernatant, TPA alone = 100% ([3]; compound 10 nM): 103%
amount of TNF-α in the supernatant, TPA alone = 100% ([3]; compound 100 nM): 115%
amount of TNF-α in the supernatant, TPA alone = 100% ([3]; compound 0.3 μM): 124%

CC(C)c1cccc(C(C)C)c1N1C(=O)c2cc3ccccc3cc2C1=O [Compound B-3, N-(2,6-diisopropylphenyl) 2,3-naphthalimide]
Amount of TNF (%), TPA alone = 100% ([3]; compound 10 μM): 134%

O=C1c2ccccc2C(=O)N1c1ccccc1 [Compound 201, N-phenylphthalimide]
amount of TNF-α, Okadaic acid alone = 100% [2, 4]: 100%
amount of TNF-α, Okadaic acid alone = 100% [2, 5]: 100%
amount of TNF-α, Okadaic acid alone = 100% [2, 6]: 82%
amount of TNF-α, Okadaic acid alone = 100% [2, 7]: 60%
amount of TNF-α, Okadaic acid alone = 100% [2, 8]: 41%

CC(C)c1cccc(C(C)C)c1N1C(=O)c2ccccc2C1=O [Compound 202, N-(2.6-diisopropylphenyl)-phthalimide]
Amount of hemoglobin, value in parentheses (Control = 100) ([1]; 10 mg/kg, experiment (a) (Table 15)): 77
Amount of hemoglobin ([1]; 10 mg/kg, experiment (a), Control 307.3 (Table 15)): 235.4 μg/gel
Amount of hemoglobin, value in parentheses (Control = 100) ([1]; 100 mg/kg, experiment (a) (Table 15)): 50
Amount of hemoglobin ([1]; 100 mg/kg, experiment (a), Control 307.3 (Table 15)): 152.5 μg/gel
amount of TNF-α, Okadaic acid alone = 100% [2, 4]: 100%
amount of TNF-α, Okadaic acid alone = 100% [2, 5]: 80%
amount of TNF-α, Okadaic acid alone = 100% [2, 6]: 43%
amount of TNF-α, Okadaic acid alone = 100% [2, 7]: 20%
amount of TNF-α, Okadaic acid alone = 100% [2, 8]: 9%

Source: patent US6429212B1, “Medicinal composition” (Ishihara Sangyo Kaisha Ltd., priority 1996, dated 2002)
